As a reminder, the IC50 is the concentration that inhibits the measured activity by half.

This test concerns the target Sodium-dependent dopamine transporter (Rattus norvegicus, UniProt P23977). Nature of the test: Affinity against cocaine binding site of dopamine transporter in rat striatum using [3H]2b as radioligand. Format: tissue-based.

Sequence of Sodium-dependent dopamine transporter (P23977 whole entry): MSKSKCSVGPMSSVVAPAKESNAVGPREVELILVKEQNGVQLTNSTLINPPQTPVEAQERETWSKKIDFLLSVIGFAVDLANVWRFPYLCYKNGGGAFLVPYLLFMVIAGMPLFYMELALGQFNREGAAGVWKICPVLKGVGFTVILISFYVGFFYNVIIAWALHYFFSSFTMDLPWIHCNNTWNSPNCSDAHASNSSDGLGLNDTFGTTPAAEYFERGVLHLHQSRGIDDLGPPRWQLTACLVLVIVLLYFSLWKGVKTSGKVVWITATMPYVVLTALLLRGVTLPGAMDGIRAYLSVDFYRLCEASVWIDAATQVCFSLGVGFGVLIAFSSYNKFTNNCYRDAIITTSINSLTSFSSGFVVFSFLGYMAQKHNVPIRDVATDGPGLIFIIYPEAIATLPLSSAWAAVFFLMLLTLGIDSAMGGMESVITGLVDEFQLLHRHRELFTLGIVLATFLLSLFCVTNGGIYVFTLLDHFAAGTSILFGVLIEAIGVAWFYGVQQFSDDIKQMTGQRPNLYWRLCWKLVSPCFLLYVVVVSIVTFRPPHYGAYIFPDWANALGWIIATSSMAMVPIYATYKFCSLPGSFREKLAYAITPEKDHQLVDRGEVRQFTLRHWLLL

For `CCOC(=O)Nc1ccc([C@H]2C[C@H]3CCC([C@H]2C(=O)OC)N3C)cc1`, the IC50 was 316 nM. This lies in the sub-micromolar range.
Compound `COC(=O)[C@@H]1C2CC[C@H](C[C@@H]1c1ccccc1)N2C` gave an IC50 of 23 nM. This IC50 lies about 14-fold lower than the previous one.
Compound `COC(=O)[C@@H]1C2CC[C@H](C[C@@H]1c1ccc(C(F)(F)F)cc1)N2C` registered an IC50 of 13.1 nM.
Compound `COC(=O)[C@@H]1C2CC[C@H](C[C@@H]1c1ccc(N=[N+]=[N-])cc1)N2C` displayed an IC50 of 2.12 nM. This IC50 lies about 6.2-fold lower than the previous one.
`COC(=O)[C@@H]1C2CC[C@H](C[C@@H]1c1ccc(N)cc1)N2C` registered an IC50 of 24.8 nM.
Turning to `COC(=O)C1C2CC[C@H](C[C@H]1c1ccc(Br)cc1)N2C` (some centres not stated), the IC50 stood at 1.81 nM.
Compound `COC(=O)C1C2CC[C@H](C[C@H]1c1ccc(C)cc1)N2C` (some centres not stated) yielded an IC50 of 1.71 nM.
On to `COC(=O)C1C2CC[C@H](C[C@@H]1c1ccc(I)cc1)N2C` (some centres not stated), for which the IC50 was 1.26 nM.
`COC(=O)[C@@H]1C2CC[C@H](C[C@@H]1c1ccc(NC(C)=O)cc1)N2C`: the IC50 amounted to 64.2 nM.
`CCC(=O)Nc1ccc([C@H]2C[C@H]3CCC([C@H]2C(=O)OC)N3C)cc1` displayed a half-inhibitory concentration (IC50) of 68 nM. This IC50 and that of the compound before are within 1.5-fold of each other.
Compound `COC(=O)[C@@H]1C2CC[C@H](C[C@@H]1c1cccs1)N2C` displayed an IC50 of 257 nM.
For `COC(=O)C1C2CC[C@H](C[C@@H]1c1ccc(Cl)cc1)N2C` (some centres not stated), the IC50 turned out to be 1.17 nM.

These data come from ChEMBL document CHEMBL1125198, “Synthesis, ligand binding, QSAR, and CoMFA study of 3 beta-(p-substituted phenyl)tropane-2 beta-carboxylic acid methyl esters” (J Med Chem, 1991).
